CC(CO)(CO)CO
solubility (mole fraction)
Details | 283.15 K | 288.15 K | 293.15 K | 298.15 K | 303.15 K | 311.05 K | 313.15 K | 318.15 K
in ethyl acetate | 0.00205 | 0.00263 | 0.00335 | 0.00433 | 0.00528 | 0.00673 | 0.00841 | 0.0105
in methyl acetate | 0.0026 | 0.00317 | 0.00398 | 0.00512 | 0.00638 | 0.00801 | 0.00997 | 0.013
in n-butanol | 0.0386 | 0.0449 | 0.0535 | 0.0634 | 0.0769 | 0.0914 | 0.11 | 0.131
